{"source": "patent EP0325131A2", "about": "“Pyrimidine derivatives as performance stimulating agents” (BAYER AG, priority 1988, dated 1989)", "system": "Weibliche Laborratten", "assay": "Rat feeding trial (relative weight gain versus untreated control)", "assay_type": "in vivo, Laborratten vom Typ SPF Wistar", "settings": "female SPF Wistar rats 90-110 g, 100 ppm active substance in feed ad lib, 13 days, relative to untreated control", "excerpt": "Weibliche Laborratten 90-110 g schwer vom Typ SPF Wistar (Züchtung Hagemann) werden ad lib mit Standard Rattenfutter, das mit der gewünschten Menge Wirkstoff versetzt ist, gefüttert. Jeder Versuchsansatz wird mit Futter der identischen Charge durchgeführt, so daß Unterschiede in der Zusammensetzung des Futters die Vergleichbarkeit der Ergebnisse nicht beeinträchtigen können.\nDie Ratten erhalten Wasser ad lib.\nJeweils 12 Ratten bilden eine Versuchsgruppe und werden mit Futter, das mit der gewünschten Menge Wirkstoff versetzt ist, gefüttert. Eine Kontrollgruppe erhält Futter ohne Wirkstoff. Die Versuchsgruppen werden so zusammengestellt, daß das durchschnittliche Körpergewicht sowie die Streuung in den Körpergewichten der Ratten in jeder Versuchsgruppe gleich ist, so daß eine Vergleichbarkeit der Versuchsgruppen untereinander gewährleistet ist.\nDie Tiere werden vor Versuchsbeginn 2 Tage an die neuen Haltungsbedingungen adaptiert, während dieser Zeit wird Futter ohne Wirkstoffzusatz gegeben. Danach erhalten die Tiere 13 Tage lang Futter, das Wirkstoff enthält. Es wird die relative Gewichtszunahme im Verhältnis zur unbehandelten Kontrolle bestimmt.", "data": [{"molecule": "CC(C)(C)NCC(O)c1cnc(N)nc1", "note": "(stereo not shown) [compound 1, 1-(2-Amino-5-pyrimidinyl)-2-(tert.-butylamino)-ethanol]", "values": [{"measurement": "relative Gewichtszunahme", "result": 30, "unit": "%"}]}]}
